Data as given in the NIST ThermoML archive (doi:10.1016/j.jct.2008.10.007).
± gives the expanded uncertainty stated by the source.

Columns and labels:
[1] = excess molar enthalpy (molar enthalpy of mixing); xn = mol fraction of the nth substance listed; settings: 298.15 K, 101 kPa, Liquid, Calvet calorimetry
[2] = xn = mol fraction of the nth substance listed; settings: 298.15 K, 101 kPa, Liquid, Vibrating tube method

ClCCCCCCl [1,5-dichloropentane] + CCCOC(C)=O
Settings | excess molar enthalpy [kcal/mol] | mass density [kg/m3]
[1], x2 = 0.0656 | -0.00382 ± 0.000239 | –
[1], x2 = 0.1426 | -0.00478 ± 0.000239 | –
[1], x2 = 0.2338 | -0.0134 ± 0.000478 | –
[1], x2 = 0.3247 | -0.0239 ± 0.000717 | –
[1], x2 = 0.4088 | -0.0337 ± 0.000717 | –
[1], x2 = 0.4844 | -0.0392 ± 0.000956 | –
[1], x2 = 0.5426 | -0.0409 ± 0.000956 | –
[1], x2 = 0.5428 | -0.0411 ± 0.000956 | –
[1], x2 = 0.6183 | -0.0409 ± 0.000956 | –
[1], x2 = 0.6974 | -0.0366 ± 0.000956 | –
[1], x2 = 0.7844 | -0.0282 ± 0.000717 | –
[1], x2 = 0.8682 | -0.0184 ± 0.000478 | –
[1], x2 = 0.9448 | -0.00813 ± 0.000239 | –
[2], x2 = 0.0592 | – | 1083.72 ± 5.8
[2], x2 = 0.126 | – | 1070.79 ± 5
[2], x2 = 0.1854 | – | 1059.08 ± 4.3
[2], x2 = 0.2502 | – | 1046.15 ± 3.7
[2], x2 = 0.3122 | – | 1033.6 ± 3.2
[2], x2 = 0.3736 | – | 1021.02 ± 2.7
[2], x2 = 0.495 | – | 995.63 ± 1.9
[2], x2 = 0.5537 | – | 983.11 ± 1.6
[2], x2 = 0.6672 | – | 958.42 ± 1.1
[2], x2 = 0.7269 | – | 945.17 ± 0.84
[2], x2 = 0.7802 | – | 933.16 ± 0.68
[2], x2 = 0.8365 | – | 920.34 ± 0.53
[2], x2 = 0.889 | – | 908.23 ± 0.41
[2], x2 = 0.9471 | – | 894.67 ± 0.31

ClCCCCCCl [1,5-dichloropentane] + CCCOC=O
Settings | excess molar enthalpy [kcal/mol] | mass density [kg/m3]
[1], x2 = 0.0772 | 0.0148 ± 0.000478 | –
[1], x2 = 0.1733 | 0.0261 ± 0.000717 | –
[1], x2 = 0.2797 | 0.0335 ± 0.000717 | –
[1], x2 = 0.3611 | 0.0349 ± 0.000717 | –
[1], x2 = 0.4265 | 0.0339 ± 0.000717 | –
[1], x2 = 0.48 | 0.0323 ± 0.000717 | –
[1], x2 = 0.5257 | 0.0301 ± 0.000717 | –
[1], x2 = 0.5865 | 0.0263 ± 0.000717 | –
[1], x2 = 0.6476 | 0.0215 ± 0.000478 | –
[1], x2 = 0.7088 | 0.0163 ± 0.000478 | –
[1], x2 = 0.7665 | 0.0115 ± 0.000478 | –
[1], x2 = 0.8266 | 0.00717 ± 0.000239 | –
[1], x2 = 0.8827 | 0.00406 ± 0.000239 | –
[1], x2 = 0.9526 | 0.0012 ± 0.000239 | –
[2], x2 = 0.1431 | – | 1073.06 ± 5.5
[2], x2 = 0.215 | – | 1061.43 ± 5.1
[2], x2 = 0.2831 | – | 1050.01 ± 4.7
[2], x2 = 0.3476 | – | 1038.81 ± 4.3
[2], x2 = 0.4101 | – | 1027.62 ± 3.9
[2], x2 = 0.4756 | – | 1015.48 ± 3.6
[2], x2 = 0.5351 | – | 1004.04 ± 3.3
[2], x2 = 0.65 | – | 980.9 ± 2.8
[2], x2 = 0.7551 | – | 958.34 ± 2.4
[2], x2 = 0.8569 | – | 935.09 ± 2
[2], x2 = 0.9046 | – | 923.69 ± 1.9
[2], x2 = 0.953 | – | 911.75 ± 1.7

ClCCCCCCCl [1,6-dichlorohexane] + CCCOC(=O)CC
Settings | excess molar enthalpy [kcal/mol] | mass density [kg/m3]
[1], x2 = 0.0728 | -0.00598 ± 0.000239 | –
[1], x2 = 0.1664 | -0.0131 ± 0.000478 | –
[1], x2 = 0.2656 | -0.0232 ± 0.000478 | –
[1], x2 = 0.3635 | -0.0354 ± 0.000956 | –
[1], x2 = 0.4374 | -0.0418 ± 0.000956 | –
[1], x2 = 0.4861 | -0.0459 ± 0.000956 | –
[1], x2 = 0.5174 | -0.0483 ± 0.0012 | –
[1], x2 = 0.5675 | -0.0495 ± 0.0012 | –
[1], x2 = 0.6298 | -0.0483 ± 0.0012 | –
[1], x2 = 0.7081 | -0.043 ± 0.000956 | –
[1], x2 = 0.7895 | -0.0373 ± 0.000956 | –
[1], x2 = 0.8738 | -0.0237 ± 0.000717 | –
[1], x2 = 0.9478 | -0.011 ± 0.000478 | –
[2], x2 = 0.0665 | – | 1052.5 ± 5.3
[2], x2 = 0.1321 | – | 1041.17 ± 4.7
[2], x2 = 0.1948 | – | 1030.19 ± 4
[2], x2 = 0.2568 | – | 1019.24 ± 3.5
[2], x2 = 0.3171 | – | 1008.42 ± 3
[2], x2 = 0.3785 | – | 997.31 ± 2.5
[2], x2 = 0.556 | – | 964.22 ± 1.5
[2], x2 = 0.7294 | – | 930.71 ± 0.82
[2], x2 = 0.7852 | – | 919.58 ± 0.65
[2], x2 = 0.8399 | – | 908.58 ± 0.51
[2], x2 = 0.8955 | – | 897.26 ± 0.39
[2], x2 = 0.949 | – | 886.33 ± 0.3

ClCCCCCCCl [1,6-dichlorohexane] + CCCOC(C)=O
Settings | excess molar enthalpy [kcal/mol] | mass density [kg/m3]
[1], x2 = 0.0861 | 0.00598 ± 0.000239 | –
[1], x2 = 0.1716 | 0.00478 ± 0.000239 | –
[1], x2 = 0.2676 | -0.00311 ± 0.000239 | –
[1], x2 = 0.3149 | -0.00765 ± 0.000239 | –
[1], x2 = 0.3896 | -0.0146 ± 0.000478 | –
[1], x2 = 0.4563 | -0.0196 ± 0.000478 | –
[1], x2 = 0.5169 | -0.0239 ± 0.000717 | –
[1], x2 = 0.5684 | -0.0253 ± 0.000717 | –
[1], x2 = 0.5761 | -0.0246 ± 0.000717 | –
[1], x2 = 0.6268 | -0.0241 ± 0.000717 | –
[1], x2 = 0.6841 | -0.022 ± 0.000478 | –
[1], x2 = 0.7455 | -0.0194 ± 0.000478 | –
[1], x2 = 0.8101 | -0.0153 ± 0.000478 | –
[1], x2 = 0.8793 | -0.0105 ± 0.000239 | –
[1], x2 = 0.9463 | -0.00574 ± 0.000239 | –
[2], x2 = 0.0708 | – | 1053.44 ± 5.3
[2], x2 = 0.1405 | – | 1042.95 ± 4.6
[2], x2 = 0.208 | – | 1032.5 ± 4
[2], x2 = 0.2725 | – | 1022.22 ± 3.4
[2], x2 = 0.3392 | – | 1011.28 ± 2.9
[2], x2 = 0.4656 | – | 989.61 ± 2
[2], x2 = 0.584 | – | 968.14 ± 1.4
[2], x2 = 0.6947 | – | 946.95 ± 0.95
[2], x2 = 0.8017 | – | 925.34 ± 0.61
[2], x2 = 0.8514 | – | 914.87 ± 0.49
[2], x2 = 0.902 | – | 903.96 ± 0.39
[2], x2 = 0.9502 | – | 893.34 ± 0.3

CCCOC(=O)CCC [propyl butanoate] + ClCCCCCCCl
Settings | excess molar enthalpy [kcal/mol] | mass density [kg/m3]
[1], x1 = 0.0619 | -0.00526 ± 0.000239 | –
[1], x1 = 0.1445 | -0.011 ± 0.000478 | –
[1], x1 = 0.2343 | -0.0182 ± 0.000478 | –
[1], x1 = 0.3207 | -0.0258 ± 0.000717 | –
[1], x1 = 0.3911 | -0.0327 ± 0.000717 | –
[1], x1 = 0.4594 | -0.0378 ± 0.000956 | –
[1], x1 = 0.5174 | -0.0404 ± 0.000956 | –
[1], x1 = 0.5559 | -0.0411 ± 0.000956 | –
[1], x1 = 0.6181 | -0.0402 ± 0.000956 | –
[1], x1 = 0.6903 | -0.037 ± 0.000956 | –
[1], x1 = 0.7651 | -0.0315 ± 0.000717 | –
[1], x1 = 0.849 | -0.0229 ± 0.000478 | –
[1], x1 = 0.9334 | -0.012 ± 0.000478 | –
[2], x1 = 0.1123 | – | 1041.34 ± 4.8
[2], x1 = 0.1686 | – | 1030.2 ± 4.2
[2], x1 = 0.2265 | – | 1018.77 ± 3.7
[2], x1 = 0.2841 | – | 1007.46 ± 3.2
[2], x1 = 0.3424 | – | 995.99 ± 2.8
[2], x1 = 0.4025 | – | 984.2 ± 2.4
[2], x1 = 0.4598 | – | 973.01 ± 2
[2], x1 = 0.5766 | – | 950.16 ± 1.4
[2], x1 = 0.6959 | – | 926.91 ± 0.91
[2], x1 = 0.755 | – | 915.37 ± 0.73
[2], x1 = 0.8145 | – | 903.79 ± 0.57
[2], x1 = 0.8778 | – | 891.49 ± 0.43
[2], x1 = 0.9367 | – | 880.14 ± 0.32
[2], x1 = 1 | – | 867.9 ± 0.23

CCCOC(C)=O [propyl ethanoate] + ClCCCCCCCl
Settings | mass density [kg/m3]
[2], x1 = 1 | 882.08 ± 0.23

CCCOC(C)=O [propyl ethanoate] + ClCCCCCCl
Settings | mass density [kg/m3]
[2], x1 = 1 | 882.08 ± 0.23

CCCOC(C)=O [propyl ethanoate] + ClCCCCCl
Settings | mass density [kg/m3]
[2], x1 = 1 | 882.08 ± 0.23

CCCOC(C)=O [propyl ethanoate] + ClCCCCl
Settings | mass density [kg/m3]
[2], x1 = 1 | 882.08 ± 0.23

CCCOC(C)=O [propyl ethanoate] + ClCCCl
Settings | mass density [kg/m3]
[2], x1 = 1 | 882.08 ± 0.23

CCCOC=O [propyl methanoate] + ClCCCCCCl
Settings | mass density [kg/m3]
[2], x1 = 1 | 899.81 ± 1.6

CCCOC(=O)CC [propyl propanoate] + ClCCCCCCCl
Settings | mass density [kg/m3]
[2], x1 = 1 | 875.61 ± 0.23

CCCOC(=O)CC [propyl propanoate] + ClCCCCCCl
Settings | mass density [kg/m3]
[2], x1 = 1 | 875.61 ± 0.23

CCCOC(=O)CC [propyl propanoate] + ClCCCCCl
Settings | mass density [kg/m3]
[2], x1 = 1 | 875.61 ± 0.23

CCCOC(=O)CC [propyl propanoate] + ClCCCCl
Settings | mass density [kg/m3]
[2], x1 = 1 | 875.61 ± 0.23
